Tested on: 755483-174-R-J1-PDC complex spheroid growth, percent test/control
Assay: Anticancer human tumor 755483-174-R-J1-PDC patient-derived rhabdomyosarcoma cell line growth inhibition [Asc]
Details: for IC50: curve of first compound; for viability, T/C: stronger effect = lower value; active means viability on the fitted dose curve at most 10% of control; inactive means the rest
Procedure, shortened: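 Tumor cells were grown as multicellular spheroids with stromal HUVEC and mesenchymal stem cells and treated singly or in combination. Concentrations fell in half-log steps from the clinical Cmax, or from 10 microM where none was known.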

[1] = second compound 0.03 µM, first compound 0.0316 µM
[2] = second compound 0.03 µM, first compound 0.1 µM
[3] = second compound 0.03 µM, first compound 0.316 µM
[4] = second compound 0.03 µM, first compound 1 µM
[5] = second compound 0.0949 µM, first compound 0.0316 µM
[6] = second compound 0.0949 µM, first compound 0.1 µM
[7] = second compound 0.0949 µM, first compound 0.316 µM
[8] = second compound 0.0949 µM, first compound 1 µM
[9] = second compound 0.3 µM, first compound 0.0316 µM
[10] = second compound 0.3 µM, first compound 0.1 µM
[11] = second compound 0.3 µM, first compound 0.316 µM
[12] = second compound 0.3 µM, first compound 1 µM
[13] = second compound 0.949 µM, first compound 0.0316 µM
[14] = second compound 0.949 µM, first compound 0.1 µM
[15] = second compound 0.949 µM, first compound 0.316 µM
[16] = second compound 0.949 µM, first compound 1 µM
[17] = second compound 3 µM, first compound 0.0316 µM
[18] = second compound 3 µM, first compound 0.1 µM
[19] = second compound 3 µM, first compound 0.316 µM
[20] = second compound 3 µM, first compound 1 µM
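Further: spheroids exposed to compounds for seven days before readout.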

C#Cc1c(F)ccc2cc(O)cc(-c3ncc4c(N5CC6CCC(C5)N6)nc(OCC56CCCN5CC(F)C6)nc4c3F)c12 (stereo not given) + CCN1C(C(=O)NC23CCC(C(=O)O)(CC2)CC3)C(c2cccc(Cl)c2F)C2(C(=O)Nc3cc(Cl)ccc32)C12CCCCC2
8790 nM: IC50 (second compound 0.03 µM)
inactive: viability, T/C [1] 90.5% | viability, T/C [2] 96.1% | viability, T/C [3] 95.5% | viability, T/C [4] 120% | viability, T/C (second compound 0.03 µM, first compound 3.16 µM) 71.8% | viability, T/C (second compound 0.03 µM, first compound 10 µM) 47.2% | viability, T/C [5] 135% | viability, T/C [6] 110% | viability, T/C [7] 128% | viability, T/C [8] 121% | viability, T/C (second compound 0.0949 µM, first compound 3.16 µM) 59.8% | viability, T/C (second compound 0.0949 µM, first compound 10 µM) 49.4% | viability, T/C [9] 79.4% | viability, T/C [10] 88.4% | viability, T/C [11] 143% | viability, T/C [12] 89.1% | viability, T/C (second compound 0.3 µM, first compound 3.16 µM) 91.7% | viability, T/C (second compound 0.3 µM, first compound 10 µM) 30.5% | viability, T/C [13] 78.9% | viability, T/C [14] 79.5% | viability, T/C [15] 117% | viability, T/C [16] 118% | viability, T/C (second compound 0.949 µM, first compound 3.16 µM) 88.2% | viability, T/C (second compound 0.949 µM, first compound 10 µM) 45.7% | viability, T/C [17] 111% | viability, T/C [18] 106% | viability, T/C [19] 116% | viability, T/C [20] 114% | viability, T/C (second compound 3 µM, first compound 3.16 µM) 80.6% | viability, T/C (second compound 3 µM, first compound 10 µM) 37.8%
9370 nM: IC50 (second compound 0.0949 µM)
6910 nM: IC50 (second compound 0.3 µM)
8900 nM: IC50 (second compound 0.949 µM)
7200 nM: IC50 (second compound 3 µM)

CNC(C)C(=O)NC1CN(S(=O)(=O)c2cccc(S(=O)(=O)N3CCC4CCC(C(=O)NC(c5ccccc5)c5ccccc5)N4C(=O)C(NC(=O)C(C)NC)C3)c2)CCC2CCC(C(=O)NC(c3ccccc3)c3ccccc3)N2C1=O (stereo not given) + CCN1C(C(=O)NC23CCC(C(=O)O)(CC2)CC3)C(c2cccc(Cl)c2F)C2(C(=O)Nc3cc(Cl)ccc32)C12CCCCC2
9.97 nM: IC50 (second compound 0.949 µM)
12.5 nM: IC50 (second compound 3 µM)
68.5 nM: IC50 (second compound 0.03 µM)
42.9 nM: IC50 (second compound 0.0949 µM)
inactive: viability, T/C (second compound 0.03 µM, first compound 0.00316 µM) 80.3% | viability, T/C (second compound 0.03 µM, first compound 0.01 µM) 65.6% | viability, T/C [1] 51.9% | viability, T/C [2] 52% | viability, T/C [3] 39.7% | viability, T/C [4] 36.2% | viability, T/C (second compound 0.0949 µM, first compound 0.00316 µM) 74.6% | viability, T/C (second compound 0.0949 µM, first compound 0.01 µM) 64.6% | viability, T/C [5] 51.1% | viability, T/C [6] 40.9% | viability, T/C [7] 43.9% | viability, T/C [8] 32.5% | viability, T/C (second compound 0.3 µM, first compound 0.00316 µM) 76.7% | viability, T/C (second compound 0.3 µM, first compound 0.01 µM) 80.9% | viability, T/C [9] 56.1% | viability, T/C [10] 39.1% | viability, T/C [11] 46% | viability, T/C [12] 59.5% | viability, T/C (second compound 0.949 µM, first compound 0.00316 µM) 92.7% | viability, T/C (second compound 0.949 µM, first compound 0.01 µM) 48.8% | viability, T/C [13] 52.6% | viability, T/C [14] 56.2% | viability, T/C [15] 42% | viability, T/C [16] 34.6% | viability, T/C (second compound 3 µM, first compound 0.00316 µM) 51.5% | viability, T/C (second compound 3 µM, first compound 0.01 µM) 54% | viability, T/C [17] 38.8% | viability, T/C [18] 36.8% | viability, T/C [19] 23.5% | viability, T/C [20] 54.1%
76.7 nM: IC50 (second compound 0.3 µM)

Cc1nc(N2CCC3(CC2)COC(C)C3N)c(CO)nc1Sc1ccnc(N)c1Cl (stereo not given) + CCN1C(C(=O)NC23CCC(C(=O)O)(CC2)CC3)C(c2cccc(Cl)c2F)C2(C(=O)Nc3cc(Cl)ccc32)C12CCCCC2
387 nM: IC50 (second compound 0.3 µM)
442 nM: IC50 (second compound 0.03 µM)
inactive: viability, T/C (second compound 0.03 µM, first compound 0.00949 µM) 111% | viability, T/C (second compound 0.03 µM, first compound 0.03 µM) 93.4% | viability, T/C (second compound 0.03 µM, first compound 0.0949 µM) 80.7% | viability, T/C (second compound 0.03 µM, first compound 0.3 µM) 58.6% | viability, T/C (second compound 0.03 µM, first compound 0.949 µM) 33.4% | viability, T/C (second compound 0.03 µM, first compound 3 µM) 19.6% | viability, T/C (second compound 0.0949 µM, first compound 0.00949 µM) 113% | viability, T/C (second compound 0.0949 µM, first compound 0.03 µM) 106% | viability, T/C (second compound 0.0949 µM, first compound 0.0949 µM) 106% | viability, T/C (second compound 0.0949 µM, first compound 0.3 µM) 52.9% | viability, T/C (second compound 0.0949 µM, first compound 0.949 µM) 39.2% | viability, T/C (second compound 0.0949 µM, first compound 3 µM) 21.1% | viability, T/C (second compound 0.3 µM, first compound 0.00949 µM) 89.5% | viability, T/C (second compound 0.3 µM, first compound 0.03 µM) 87.6% | viability, T/C (second compound 0.3 µM, first compound 0.0949 µM) 62.1% | viability, T/C (second compound 0.3 µM, first compound 0.3 µM) 51.6% | viability, T/C (second compound 0.3 µM, first compound 0.949 µM) 42.5% | viability, T/C (second compound 0.3 µM, first compound 3 µM) 18.5% | viability, T/C (second compound 0.949 µM, first compound 0.00949 µM) 105% | viability, T/C (second compound 0.949 µM, first compound 0.03 µM) 82.9% | viability, T/C (second compound 0.949 µM, first compound 0.0949 µM) 84.1% | viability, T/C (second compound 0.949 µM, first compound 0.3 µM) 40.1% | viability, T/C (second compound 0.949 µM, first compound 0.949 µM) 24.9% | viability, T/C (second compound 0.949 µM, first compound 3 µM) 27.1% | viability, T/C (second compound 3 µM, first compound 0.00949 µM) 111% | viability, T/C (second compound 3 µM, first compound 0.03 µM) 82.9% | viability, T/C (second compound 3 µM, first compound 0.0949 µM) 71.9% | viability, T/C (second compound 3 µM, first compound 0.3 µM) 50.1% | viability, T/C (second compound 3 µM, first compound 0.949 µM) 34.3% | viability, T/C (second compound 3 µM, first compound 3 µM) 21.1%
232 nM: IC50 (second compound 0.949 µM)
371 nM: IC50 (second compound 0.0949 µM)
315 nM: IC50 (second compound 3 µM)
